Key:
[1] = target: T1, TAF1-T (TAF1 tandem bromodomain, BD1 and BD2) (Homo sapiens, UniProt P21675); experiment: Differential scanning fluorimetry (DSF) thermal shift; assay type: binding
T1 construct: tandem bromodomain (residues 1373-1635); His6 (TEV-cleavable) (cleaved yes); host or cells: E. coli BL21 (DE3)
T1 sequence (P21675 1373-1635 isoform P21675-1): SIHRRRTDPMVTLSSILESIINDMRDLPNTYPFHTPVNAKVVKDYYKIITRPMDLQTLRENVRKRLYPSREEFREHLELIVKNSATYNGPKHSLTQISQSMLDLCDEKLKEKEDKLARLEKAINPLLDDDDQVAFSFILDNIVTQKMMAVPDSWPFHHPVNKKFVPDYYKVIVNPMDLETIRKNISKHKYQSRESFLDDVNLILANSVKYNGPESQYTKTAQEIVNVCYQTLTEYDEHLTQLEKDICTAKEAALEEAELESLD

TAF1-2 (TAF1 BD2) [2] = target: T2, TAF1-2 (TAF1 BD2) (Homo sapiens, UniProt P21675); experiment: as above; assay type: binding
T2 construct: BD2 (residues 1501-1635); His6 (TEV-cleavable) (cleaved yes); host or cells: E. coli BL21 (DE3)
T2 sequence (P21675 1501-1635 isoform P21675-1): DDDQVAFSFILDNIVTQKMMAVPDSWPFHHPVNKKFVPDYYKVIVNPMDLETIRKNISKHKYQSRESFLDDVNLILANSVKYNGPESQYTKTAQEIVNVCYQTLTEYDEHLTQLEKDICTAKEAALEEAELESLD

[3] = target: T3, TAF1-T (TAF1 tandem bromodomain) (Homo sapiens, UniProt P21675); experiment: Isothermal titration calorimetry (ITC); assay type: binding; conditions: Table 3; 298.15 K
T3 construct: tandem bromodomain (residues 1373-1635); His6 (TEV-cleavable) (cleaved yes); host or cells: E. coli BL21 (DE3)
T3 sequence (P21675 1373-1635 isoform P21675-1): T1 sequence (P21675 1373-1635 isoform P21675-1)

TAF1-2 (TAF1 BD2) [4] = target: T2, TAF1-2 (TAF1 BD2); experiment: Isothermal titration calorimetry (ITC); assay type: binding; conditions: Table 3; 288.15 K
A549 lung cancer cells = experiment: p53 pathway markers by western blot in A549 cells; assay type: cell-based, human
ATAD2A = target: T4, ATAD2A (Homo sapiens, UniProt Q6PL18); experiment: Bromoscan selectivity profiling (DiscoveRx); assay type: binding; conditions: at 20,000 nM
T4 construct: 32 bromodomains (by DiscoveRx); purchased DiscoveRx (BromoScan service)
T4 sequence (Q6PL18 980-1092 limits assumed): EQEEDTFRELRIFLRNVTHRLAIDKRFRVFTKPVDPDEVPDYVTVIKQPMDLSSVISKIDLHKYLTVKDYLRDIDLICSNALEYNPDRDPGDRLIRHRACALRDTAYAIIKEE
Experimental: (§1) qPCR-based BRD binding assay. Another method for the determination of dissociation constants of BRD-ligand complexes is offered by DiscoveRx Corp. The assay is based on competition between test compound and immobilized high-affinity ligand for binding to the KAc site of BRDs. The amount of TAF1 remaining on an immobilized high-affinity ligand in the presence of ligand is measured using a quantitative real-time polymerase chain reaction (qPCR) method that detects the associated DNA label tagged to the BRD.
(§2) Inhibitor selectivity assays To assess target selectivity, compounds with highest biochemical and cellular activities can be profiled against panels of BRDs and kinases using the services of DiscoveRx and/or Reaction biology, as we have done previously.

ATAD2B = target: T5, ATAD2B (Homo sapiens, UniProt Q9ULI0); experiment: Bromoscan selectivity profiling (DiscoveRx); assay type: binding; conditions: at 20,000 nM
T5 construct: 32 bromodomains (by DiscoveRx); purchased DiscoveRx (BromoScan service)
T5 sequence (Q9ULI0 951-1066 limits assumed): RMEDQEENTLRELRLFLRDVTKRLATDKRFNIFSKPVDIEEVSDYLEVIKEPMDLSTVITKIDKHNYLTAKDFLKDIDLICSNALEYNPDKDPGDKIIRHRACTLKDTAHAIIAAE
Experimental: as §1, §2

BAZ2A = target: T6, BAZ2A (Homo sapiens, UniProt Q9UIF9); experiment: Bromoscan selectivity profiling (DiscoveRx); assay type: binding; conditions: at 20,000 nM
T6 construct: 32 bromodomains (by DiscoveRx); purchased DiscoveRx (BromoScan service)
T6 sequence (Q9UIF9 1793-1897 limits assumed): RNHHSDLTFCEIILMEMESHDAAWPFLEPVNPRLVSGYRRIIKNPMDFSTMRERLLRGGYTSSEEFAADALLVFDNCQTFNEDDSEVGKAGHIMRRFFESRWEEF
Experimental: as §1, §2

BRD2(1) = target: T7, BRD2(1) (Homo sapiens, UniProt P25440); experiment: Bromoscan selectivity profiling (DiscoveRx); assay type: binding; conditions: at 20,000 nM
T7 construct: 32 bromodomains (by DiscoveRx); purchased DiscoveRx (BromoScan service)
T7 sequence (P25440 74-180 limits assumed): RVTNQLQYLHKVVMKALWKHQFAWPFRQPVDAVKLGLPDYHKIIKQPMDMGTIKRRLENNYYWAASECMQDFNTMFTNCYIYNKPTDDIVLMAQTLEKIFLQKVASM
Experimental: as §1, §2

BRD3(1) = target: T8, BRD3(1) (Homo sapiens, UniProt Q15059); experiment: Bromoscan selectivity profiling (DiscoveRx); assay type: binding; conditions: at 20,000 nM
T8 construct: 32 bromodomains (by DiscoveRx); purchased DiscoveRx (BromoScan service)
T8 sequence (Q15059 34-140 limits assumed): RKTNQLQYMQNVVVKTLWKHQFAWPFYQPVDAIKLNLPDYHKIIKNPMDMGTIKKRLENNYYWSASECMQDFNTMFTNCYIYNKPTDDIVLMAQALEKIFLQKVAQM
Experimental: as §1, §2

BRD3(2) = target: T9, BRD3(2) (Homo sapiens, UniProt Q15059); experiment: Bromoscan selectivity profiling (DiscoveRx); assay type: binding; conditions: at 20,000 nM
T9 construct: 32 bromodomains (by DiscoveRx); purchased DiscoveRx (BromoScan service)
T9 sequence (Q15059 306-415 limits assumed): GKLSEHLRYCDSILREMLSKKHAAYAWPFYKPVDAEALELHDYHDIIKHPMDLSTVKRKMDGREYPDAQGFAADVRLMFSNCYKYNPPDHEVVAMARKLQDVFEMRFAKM
Experimental: as §1, §2

BRD9 = target: T10, BRD9 (Homo sapiens, UniProt Q9H8M2); experiment: Bromoscan selectivity profiling (DiscoveRx); assay type: binding; conditions: at 20,000 nM
T10 construct: purchased DiscoveRx
T10 sequence (Q9H8M2 136-240 limits assumed): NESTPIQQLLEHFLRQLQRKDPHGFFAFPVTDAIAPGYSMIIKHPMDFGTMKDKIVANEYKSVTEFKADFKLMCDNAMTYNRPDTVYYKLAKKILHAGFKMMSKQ
Experimental: as §1, §2

BRDT(1) = target: T11, BRDT(1) (Homo sapiens, UniProt Q58F21); experiment: Bromoscan selectivity profiling (DiscoveRx); assay type: binding; conditions: at 20,000 nM
T11 construct: BRDT(1); purchased DiscoveRx
Experimental: as §1, §2

CECR2 = target: T12, CECR2 (Homo sapiens, UniProt Q9BXF3); experiment: Bromoscan selectivity profiling (DiscoveRx); assay type: binding; conditions: at 20,000 nM
T12 construct: purchased DiscoveRx
T12 sequence (Q9BXF3 434-538 limits assumed): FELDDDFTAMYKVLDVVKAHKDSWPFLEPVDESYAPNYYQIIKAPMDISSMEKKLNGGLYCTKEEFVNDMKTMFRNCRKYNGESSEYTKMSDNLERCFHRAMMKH
Experimental: as §1, §2

CREBBP = target: T13, CREBBP (Homo sapiens, UniProt Q92793); experiment: Bromoscan selectivity profiling (DiscoveRx); assay type: binding; conditions: at 20,000 nM
T13 construct: purchased DiscoveRx
T13 sequence (Q92793 1085-1192 limits assumed): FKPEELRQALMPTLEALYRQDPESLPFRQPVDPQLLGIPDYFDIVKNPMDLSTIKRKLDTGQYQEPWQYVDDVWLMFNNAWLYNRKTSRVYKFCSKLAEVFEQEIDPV
Experimental: as §1, §2

EP300 = target: T14, EP300 (Homo sapiens, UniProt Q09472); experiment: Bromoscan selectivity profiling (DiscoveRx); assay type: binding; conditions: at 20,000 nM
T14 construct: purchased DiscoveRx
T14 sequence (Q09472 1049-1156 limits assumed): as the sequence (Q92793 1085-1192 limits assumed) above, with N47S, V73I, F93Y, A98S counted along it
Experimental: as §1, §2

FALZ = target: T15, FALZ (Homo sapiens, UniProt Q12830); experiment: Bromoscan selectivity profiling (DiscoveRx); assay type: binding; conditions: at 20,000 nM
T15 construct: purchased DiscoveRx
Experimental: as §1, §2

PBRM1(2) = target: T16, PBRM1(2) (Homo sapiens, UniProt Q86U86); experiment: Bromoscan selectivity profiling (DiscoveRx); assay type: binding; conditions: at 20,000 nM
T16 construct: PBRM1(2); purchased DiscoveRx
T16 sequence (Q86U86 177-287 limits assumed): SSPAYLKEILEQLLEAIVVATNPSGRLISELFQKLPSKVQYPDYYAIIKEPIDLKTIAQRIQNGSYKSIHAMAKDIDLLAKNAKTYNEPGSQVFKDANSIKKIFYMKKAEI
Experimental: as §1, §2

PBRM1(5) = target: T17, PBRM1(5) (Homo sapiens, UniProt Q86U86); experiment: Bromoscan selectivity profiling (DiscoveRx); assay type: binding; conditions: at 20,000 nM
T17 construct: PBRM1(5); purchased DiscoveRx
T17 sequence (Q86U86 653-763 limits assumed): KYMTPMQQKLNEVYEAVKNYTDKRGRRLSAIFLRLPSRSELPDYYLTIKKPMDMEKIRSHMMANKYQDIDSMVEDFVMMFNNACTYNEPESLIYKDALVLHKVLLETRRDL
Experimental: as §1, §2

PCAF = target: T18, PCAF (Homo sapiens, UniProt Q92831); experiment: Bromoscan selectivity profiling (DiscoveRx); assay type: binding; conditions: at 20,000 nM
T18 construct: purchased DiscoveRx
T18 sequence (Q92831 723-827 limits assumed): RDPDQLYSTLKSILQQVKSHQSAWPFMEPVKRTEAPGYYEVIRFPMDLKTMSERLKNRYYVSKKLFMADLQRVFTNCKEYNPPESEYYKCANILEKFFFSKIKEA
Experimental: as §1, §2

SMARCA2 = target: T19, SMARCA2 (Homo sapiens, UniProt P51531); experiment: Bromoscan selectivity profiling (DiscoveRx); assay type: binding; conditions: at 20,000 nM
T19 construct: purchased DiscoveRx
T19 sequence (P51531 1378-1506 limits assumed): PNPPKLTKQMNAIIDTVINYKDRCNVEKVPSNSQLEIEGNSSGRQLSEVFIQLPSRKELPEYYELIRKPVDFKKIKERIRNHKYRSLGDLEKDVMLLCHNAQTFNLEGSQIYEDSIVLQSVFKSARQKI
Experimental: as §1, §2

SMARCA4 = target: T20, SMARCA4 (Homo sapiens, UniProt P51532); experiment: Bromoscan selectivity profiling (DiscoveRx); assay type: binding; conditions: at 20,000 nM
T20 construct: purchased DiscoveRx
T20 sequence (P51532 1453-1564 limits assumed): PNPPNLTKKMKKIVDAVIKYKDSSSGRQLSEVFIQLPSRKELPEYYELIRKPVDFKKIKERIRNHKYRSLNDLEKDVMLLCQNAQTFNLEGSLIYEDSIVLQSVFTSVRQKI
Experimental: as §1, §2

TAF1(2) = target: T21, TAF1(2) (Homo sapiens, UniProt P21675); experiment: Bromoscan selectivity profiling (DiscoveRx); assay type: binding; conditions: at 20,000 nM
T21 construct: purchased DiscoveRx
Experimental: as §1, §2

TAF1L(2) = target: T22, TAF1L(2) (Homo sapiens, UniProt Q8IZX4); experiment: Bromoscan selectivity profiling (DiscoveRx); assay type: binding; conditions: at 20,000 nM
T22 construct: purchased DiscoveRx
T22 sequence (Q8IZX4 1517-1626 limits assumed): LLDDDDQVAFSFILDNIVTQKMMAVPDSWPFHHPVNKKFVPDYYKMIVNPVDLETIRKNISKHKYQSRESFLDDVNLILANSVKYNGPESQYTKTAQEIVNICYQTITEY
Experimental: as §1, §2

TRIM24(PHD, Bromo.) = target: T23, TRIM24(PHD, Bromo.) (Homo sapiens, UniProt O15164); experiment: Bromoscan selectivity profiling (DiscoveRx); assay type: binding; conditions: at 20,000 nM
T23 construct: TRIM24(PHD, Bromo.); purchased DiscoveRx
T23 sequence (O15164 824-1006 limits assumed): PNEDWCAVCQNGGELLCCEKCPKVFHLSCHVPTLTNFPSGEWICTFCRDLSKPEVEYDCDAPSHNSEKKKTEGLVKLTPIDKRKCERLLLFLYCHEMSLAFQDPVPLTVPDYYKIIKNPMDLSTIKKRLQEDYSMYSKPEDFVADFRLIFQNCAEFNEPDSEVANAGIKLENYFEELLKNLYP
Experimental: as §1, §2

WDR9(2) = target: T24, WDR9(2) (Homo sapiens, UniProt Q9NSI6); experiment: Bromoscan selectivity profiling (DiscoveRx); assay type: binding; conditions: at 20,000 nM
T24 construct: purchased DiscoveRx
T24 sequence (Q9NSI6 1313-1418 limits assumed): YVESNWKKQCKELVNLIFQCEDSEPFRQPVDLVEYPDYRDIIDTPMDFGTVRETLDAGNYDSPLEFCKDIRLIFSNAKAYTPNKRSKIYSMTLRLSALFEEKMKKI
Experimental: as §1, §2

TRIM33(PHD, Bromo.) = experiment: Bromoscan selectivity profiling (DiscoveRx); assay type: binding, human; conditions: at 20,000 nM
Experimental: as §1, §2

[5] = Table 2 (Example 2), 100 μM compound, standard deviation from two experiments
[6] = Table 2 (Example 2), 100 μM compound, standard deviation from two experiments, 100 µM

In the case of `C[C@@H]1COCCN1c1cc(C2([S@](C)(=N)=O)CC2)nc(-c2cc[nH]c3nccc2-3)n1` [AZD6738], the “DSF (ΔTm, ° C.) TAF1-T” value ([1]; Table 1 (Example 1)) is reported as 5.8 ± 0.5 °C, the ΔTm at 100 µM [1, 5] is reported as 3.1 °C and the “DSF (ΔTm, ° C.) TAF1-T” value [1, 6] is reported as 3.2 ± 0.1 °C. The “DSF (ΔTm, ° C.) TAF1-2” value (TAF1-2 (TAF1 BD2) [2]; Table 1 (Example 1)) was 2.9 ± 0.2 °C, the ΔTm at 100 µM (TAF1-2 (TAF1 BD2) [2]; [5]) was 3.2 °C and the “DSF (ΔTm, ° C.) TAF1-2” value (TAF1-2 (TAF1 BD2) [2]; [6]) was 3.1 ± 0.1 °C. The “ITC N (stoichiometry), TAF1-T” value [3] was 1.11, the “ITC TΔS, TAF1-T” value [3] was 2.26 kcal/mol and the “ITC ΔH, TAF1-T” value [3] was -5.82 kcal/mol. For the same compound, the “ITC N (stoichiometry), TAF1-2” value (TAF1-2 (TAF1 BD2) [4]) was 0.99, the “ITC TΔS, TAF1-2” value (TAF1-2 (TAF1 BD2) [4]) was 3.26 kcal/mol and the “ITC ΔH, TAF1-2” value (TAF1-2 (TAF1 BD2) [4]) was -4.36 kcal/mol. The “p53 and p21 levels” value (A549 lung cancer cells; A549, 10 μM, 24 h, western blot) was “modest increase”, the MDMX levels (A549 lung cancer cells; A549, western blot) was “modest effect” and the inhibition at 20 µM (ATAD2A) was 0%. For the same compound, the inhibition at 20 µM (ATAD2B) was 0%, the inhibition at 20 µM (BAZ2A) was 0% and the inhibition at 20 µM (BRD2(1)) was 46%. It also gave an inhibition at 20 µM (BRD3(1)) of 60%, an inhibition at 20 µM (BRD3(2)) of 82% and an inhibition at 20 µM (BRD9) of 13%. It also gave an inhibition at 20 µM (BRDT(1)) of 56%, an inhibition at 20 µM (CECR2) of 92.3% and an inhibition at 20 µM (CREBBP) of 20%. For the same compound, the inhibition at 20 µM (EP300) was 36%, the inhibition at 20 µM (FALZ) was 11% and the inhibition at 20 µM (PBRM1(2)) was 5%. It also gave an inhibition at 20 µM (PBRM1(5)) of 0%, an inhibition at 20 µM (PCAF) of 18% and an inhibition at 20 µM (SMARCA2) of 15%. It also gave an inhibition at 20 µM (SMARCA4) of 7%, an inhibition at 20 µM (TAF1(2)) of 99.8% and an inhibition at 20 µM (TAF1L(2)) of 98%. For the same compound, the inhibition at 20 µM (TRIM24(PHD, Bromo.)) was 6%, the inhibition at 20 µM (WDR9(2)) was 84% and the “% Inhibition TRIM33(PHD, Bromo.)” value (TRIM33(PHD, Bromo.)) was 0%.
